Assay results reported in patent US20200239530A1, “COMPOUNDS AND METHODS OF MODULATING PROTEIN DEGRADATION” (Vividion Therapeutics, Inc., priority 2017, published 2020).

Assays:
[1] = target: T1, RRP8 Ribosomal RNA-processing protein 8 (Homo sapiens, UniProt O43159); assay: Cysteine liganding, probe competition; type: binding
T1 construct: Cells were resuspended in cold PBS on ice and sonicated with a probe sonicator to achieve lysis; endogenous in cells
T1 sequence (O43159 1-456): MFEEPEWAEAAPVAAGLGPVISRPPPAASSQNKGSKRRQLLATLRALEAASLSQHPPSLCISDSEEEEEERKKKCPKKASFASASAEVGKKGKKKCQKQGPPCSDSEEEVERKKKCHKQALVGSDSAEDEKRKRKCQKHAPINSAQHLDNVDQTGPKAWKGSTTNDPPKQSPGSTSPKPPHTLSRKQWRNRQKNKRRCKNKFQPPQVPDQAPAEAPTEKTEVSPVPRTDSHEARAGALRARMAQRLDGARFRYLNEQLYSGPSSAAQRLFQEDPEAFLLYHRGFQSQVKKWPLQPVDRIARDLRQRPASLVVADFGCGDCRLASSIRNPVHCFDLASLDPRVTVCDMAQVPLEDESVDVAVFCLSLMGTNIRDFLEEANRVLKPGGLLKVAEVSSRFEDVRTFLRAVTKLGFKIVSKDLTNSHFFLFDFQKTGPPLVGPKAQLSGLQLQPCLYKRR
In short: (§1)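 Read-out is loss of desthiobiotin iodoacetamide labelling at cysteines, measured on streptavidin-enriched tryptic peptides. Compound preincubation ran 1 hr at 25° C in PBS lysate holding 5 mg/ml proteome before the probe was added.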

[2] = target: T2, KIAA0528 Uncharacterized protein KIAA0528 (Homo sapiens, UniProt Q86YS7); assay: Cysteine liganding, probe competition; type: binding
T2 construct: Cells were resuspended in cold PBS on ice and sonicated with a probe sonicator to achieve lysis; endogenous in cells
T2 sequence (Q86YS7 1-1000): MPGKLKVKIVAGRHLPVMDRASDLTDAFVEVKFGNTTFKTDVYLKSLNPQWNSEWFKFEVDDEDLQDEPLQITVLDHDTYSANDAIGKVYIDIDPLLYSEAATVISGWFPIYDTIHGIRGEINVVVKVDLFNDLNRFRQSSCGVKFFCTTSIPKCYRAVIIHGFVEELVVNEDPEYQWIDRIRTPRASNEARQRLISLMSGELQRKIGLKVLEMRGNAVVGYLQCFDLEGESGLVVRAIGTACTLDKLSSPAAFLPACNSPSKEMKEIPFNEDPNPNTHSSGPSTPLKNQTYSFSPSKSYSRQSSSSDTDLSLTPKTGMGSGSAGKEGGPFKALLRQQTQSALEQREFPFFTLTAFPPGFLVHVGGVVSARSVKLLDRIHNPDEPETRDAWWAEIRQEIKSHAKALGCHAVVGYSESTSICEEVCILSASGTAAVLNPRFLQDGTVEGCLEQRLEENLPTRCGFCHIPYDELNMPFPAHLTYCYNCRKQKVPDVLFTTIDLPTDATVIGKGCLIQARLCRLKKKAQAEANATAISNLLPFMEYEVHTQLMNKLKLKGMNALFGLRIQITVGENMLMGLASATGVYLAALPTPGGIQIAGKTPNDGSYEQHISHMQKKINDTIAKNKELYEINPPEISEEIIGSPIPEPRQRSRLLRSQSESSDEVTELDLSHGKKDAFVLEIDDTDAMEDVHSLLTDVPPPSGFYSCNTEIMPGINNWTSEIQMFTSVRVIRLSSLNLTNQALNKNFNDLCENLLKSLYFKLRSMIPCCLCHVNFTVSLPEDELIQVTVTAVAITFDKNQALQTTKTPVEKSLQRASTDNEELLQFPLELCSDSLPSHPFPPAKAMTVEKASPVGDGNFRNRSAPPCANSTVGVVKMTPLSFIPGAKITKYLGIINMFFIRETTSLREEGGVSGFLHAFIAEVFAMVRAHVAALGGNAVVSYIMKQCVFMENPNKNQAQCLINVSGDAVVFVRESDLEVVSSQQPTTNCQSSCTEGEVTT
In short: as §1

Compound | 100 Max ([1]; uniprot O43159) | 100 ave ([1]; uniprot O43159) | 500 Max ([1]; uniprot O43159) | 500 ave ([1]; uniprot O43159) | 100 ave ([2]; uniprot Q86YS7) | 500 Max ([2]; uniprot Q86YS7) | 500 ave ([2]; uniprot Q86YS7) | 100 Max ([2]; uniprot Q86YS7, unit assumed) [%] | Liganded ([1]; RRP8 Res# 451, uniprot O43159) | Liganded ([2]; KIAA0528 Res# 867, uniprot Q86YS7)
O=C(CCl)Nc1cc(C(F)(F)F)cc(C(F)(F)F)c1 [KBO3] | 14.62 | −3.99 | 57.64 | 48.93 | −6.4125 | 46.81 | 33.415 | 7.23 |  | 
COc1ccc2c(c1)CCCN2C(=O)CCl [KB02] |  |  |  |  |  |  |  |  | YES | YES
